Measurements reported in publication PMC7125202, “Targeting of radioactive platinum-bisphosphonate anticancer drugs to bone of high metabolic activity” (Scientific Reports, 2020).
“Also recorded” adds a separate entry of the source.

Assays:
[1] = tested on: zebrafish embryos; assay: Phenotypic assessment of drug-treated zebrafish embryos; format: in vivo, zebrafish (Danio rerio); conditions: up to a concentration of 100 µM, until 2 days post treatment
Protocol: The zebrafish (Danio rerio) strains were kept under standard conditions (28 °C in E3 buffer) until 48 hours post fertilization (hpf) as described previously. All animal experiments were conducted at larval stages before the point of independent feeding and were in agreement with the animal protection law (Tierschutzgesetz).
48 hpf wildtype embryos were separated into 6 groups (n = 20 embryos/group), i.e., control (untreated) and embryos treated with 5 µM, 10 µM, 50 µM, and 100 µM Pt-BP as well as 30 µM cisplatin. Both types of compounds were added externally to the medium and the embryos were incubated at 33 °C for the duration of the experiment. The embryos were assessed each day for phenotypic toxicity until 2 days post treatment (48 hpt) and imaged live in an Olympus MVX10 microscope.

[2] = tested on: lateral line neuromast hair cells; assay: Ototoxicity assay, DASPEI staining; format: in vivo, zebrafish (Danio rerio); conditions: 48 h post treatment, 5, 10 and 50 µM
Protocol: The lateral line neuromast hair cells in embryos were stained with a vital dye to analyse the loss of hair cells after Pt-BP treatment. Cisplatin was used as a control, as it was known to affect hair cells in humans. The fluorescent dye 2-[4-(dimethylamino)styryl]-N-ethylpyridinium iodide (DASPEI) [Molecular Probes, Eugene, OR] was used to stain hair cells in the neuromast as described previously. Larvae were incubated in embryo medium containing 0.005% DASPEI for 15 min, anesthetized in Tricaine MS222 (10 µg/ml) for 5 min, rinsed once in fresh embryo medium, and imaged using Vertebrate automated screening technology (VAST, Union Biometrica), combined with high-speed and super-resolution Zeiss cell observer spinning disk confocal system. The quantification of number of neuromast hair cells in the treated embryos was done manually with confocal microscopy (Zeiss LSM780).

[3] = tested on: genomic DNA; assay: Pt-DNA adducts quantification using High Resolution ICP-MS; format: in vivo, C57Bl/6N mice; conditions: 24 h after i.v. injection
Excerpt: The remaining half of the tissues from all mice were dissected and weighed for DNA extraction. DNA was isolated using DNeasy Blood & Tissue Kit (Qiagen, USA) for soft tissue and ChargeSwitch® gDNA Plant Kit (Thermofisher, USA) for bone samples. The DNA was digested with DNase I Solution (Thermofisher, USA) and filtered using 0.2 µm acrodisc GHP before analysis for Pt content using high resolution-ICP-MS (Element2, Thermo Finnigan). The detection limit for determining the platinum concentration was 2 ng/l. The standard solutions were prepared from 1000 mg·1^−1 platinum ICP standard Certipur (1.70341.0100, Merck) ranging from 5 ppt to 10 ppb. The selected isotopes for platinum were ^194Pt and ^195Pt. Furthermore, thallium (Tl) was added as an internal standard and determined at a molecular mass of 205 Da, which was prepared using a 1000 mg·1^−1 thallium standard (CGTL-1, Inorganic Ventures) to correct for matrix effects and long-term fluctuations of the analytical signal. The Pt-DNA adduct concentration is represented as percentage of Pt involved in adduct formation to the total amount of Pt accumulated in the specific tissue.

[4] = In vivo biodistribution of cold Pt-species, Pt quantified by ICP-MS; set-up: species or system C57Bl/6N mice; conditions: 24 h after i.v. injection
Protocol: The Pt-BP and Pt(NO3)2(en) complexes were administered intravenously in the tail vein of C57BL/6N mice (n = 5 per each platinum complex). Sterile saline solution (0.9% NaCl) was used to dissolve platinum complexes. The concentration of injected Pt-BP or Pt(NO3)2(en) solutions was 2.5 mM platinum, calculated based on the maximum tolerated dose for cisplatin of 6 mg per kg body weight of the mice[37]. The mice were euthanized with CO2 24 h after injection, after which blood (approximately 600 mg per mouse), liver, spleen, kidneys, heart, lungs, and bones (femur, humerus, tibia, and spine) were harvested. Approximately half of the tissues were prepared for inductively coupled plasma-mass spectrometry (ICP-MS) analysis by digestion in 65% (v/v) nitric acid at 75 °C for approximately three days until the tissues were digested completely. Each tissue was cut into three samples and the samples were weighed prior to digestion in nitric acid. The digested solutions were diluted with up to 6 ml of Milli-Q water to obtain 2% (v/v) nitric acid in order to measure platinum concentrations by ICP-MS (X series I, Thermo Electron Corporation). The detection limit for determining platinum concentration with ICP-MS was 1 ppb. The standard solutions were prepared from 1000 mg·1^−1 platinum ICP standard Certipur (1.70341.0100, Merck) ranging from 1 ppb to 2500 ppb. The measured isotopes for platinum were ^194Pt, ^195Pt, ^196Pt, and ^198Pt. Furthermore, scandium (^45Sc) was added as an internal standard, which was prepared with 1000 mg·1^−1 scandium standard Certipur (1.19513.0100, Merck) to correct for matrix effects and long-term fluctuations of the measurement signal. The platinum concentrations in the various tissues were calculated relative to 1 mg of the specific tissue and represented as ng Pt/mgtissue. Three replicates of Pt-BP and Pt(NO3)2(en) solutions with volumes and platinum concentrations identical to the solutions injected to the mice (200 µl and 2.5 mM platinum, respectively) were also analyzed for their platinum content using ICP-MS as control. The percentage of injected dose (%ID) of Pt-BP and Pt(NO3)2(en) in each mouse tissue 24 h after injection was calculated by dividing the total amount of platinum per tissue through the total amount of platinum detected in the control solutions[52].

## NCCN.NCCN.O.O.O.O=S(=O)([O-])O.[NH3+]CC1(O)P2(=O)[O][Pt][O]P1(=O)[O][Pt][O]2 (centres unmarked) [Pt-BP, dinuclear bis<ethylenediamineplatinum(II) > -2-amino-1-hydroxyethane-1,1-diyl-bisphosphonate complex]
[1]
  visible phenotypic effects: did not show any phenotypic abnormality; also recorded: no visible phenotypic effects
[2]
  ototoxic effect (lateral line neuromast hair cell quantification): dose-dependent ototoxic effect
[3]
  Pt-DNA adduct formation relative to total Pt uptake, all tissues except kidney and spleen: < 0.5%
  Pt-DNA adduct formation relative to total Pt uptake, kidney: 2.8%
  Pt-DNA adduct formation relative to total Pt uptake, spleen: 1.4%
[4]
  higher affinity for bone compared to Pt(NO3)2(en): 4.5 fold
[4]; 2.5 mM Pt
  Pt uptake in hard tissue: 12.18 ± 0.56 %ID/g
  Pt uptake in kidney: 5.70 ± 0.15 %ID/g
  Pt uptake in liver: 2.34 ± 0.17 %ID/g
  Pt uptake in spleen: 1.22 ± 0.12 %ID/g
[4]; 2.5 mM Pt, normalized for tissue weight
  Pt accumulation in hard tissue (bone): ~ 3 ng Pt/mg tissue
